# Assay results taken from BindingDB's records for doi:10.1021/jm00095a003 (C.N.R.-Centro Studio Sostanze Organiche Naturali, 1992).
# How the values were obtained:
# [1] = target: T1, Muscarinic acetylcholine receptor (Cavia porcellus, UniProt Q8VH26); test: Dissociation constant at muscarinic acetylcholine receptor M3 of guinea pig ileum.
# [2] = target: T1, Muscarinic acetylcholine receptor; test: Dissociation constant at muscarinic acetylcholine receptor M3 guinea pig bladder.
# [3] = target: T1, Muscarinic acetylcholine receptor; test: Dissociation constant at muscarinic M3 receptors of guinea pig bladder.
# [4] = target: T1, Muscarinic acetylcholine receptor; test: Dissociation constant at muscarinic M3 receptors of guinea pig ileum.
# T1 sequence (Q8VH26 whole entry): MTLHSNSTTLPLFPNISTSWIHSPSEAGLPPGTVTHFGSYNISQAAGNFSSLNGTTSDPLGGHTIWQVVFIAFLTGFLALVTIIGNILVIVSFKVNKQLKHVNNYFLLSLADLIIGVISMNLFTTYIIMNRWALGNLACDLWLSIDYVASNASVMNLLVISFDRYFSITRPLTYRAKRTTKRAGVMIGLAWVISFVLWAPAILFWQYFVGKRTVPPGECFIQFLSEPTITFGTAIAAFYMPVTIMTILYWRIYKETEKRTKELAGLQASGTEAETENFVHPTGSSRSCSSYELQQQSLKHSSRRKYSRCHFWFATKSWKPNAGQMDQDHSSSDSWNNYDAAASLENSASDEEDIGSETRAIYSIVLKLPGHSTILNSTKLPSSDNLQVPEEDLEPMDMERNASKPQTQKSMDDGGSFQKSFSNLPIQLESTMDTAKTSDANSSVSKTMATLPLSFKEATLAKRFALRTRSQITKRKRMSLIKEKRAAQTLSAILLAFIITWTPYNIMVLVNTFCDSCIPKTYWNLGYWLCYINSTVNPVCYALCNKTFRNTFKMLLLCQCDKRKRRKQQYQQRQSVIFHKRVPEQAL
SMILES,Kd [1] [nM],Kd [2] [µM],Kd [3] [µM],Kd [4] [nM]
C[C@@H]1O[C@H](C[N+](C)(C)C)C[C@H]1O,1120,24,–,–
C[C@@H]1O[C@H](C[N+](C)(C)C)C[C@H]1F,–,–,40.7,1910
